PubChem BioAssay AID1259407 (Chemical Carcinogenesis Research Information System (CCRIS), 2018)
The source made the active and inactive calls. The rule behind the calls is not given here.

System: CCRIS mutagenicity, Ames/micronucleus/aberration tests
Assay: CCRIS mutagenicity studies
[1] = Test System: AMES SALMONELLA TYPHIMURIUM, Strain/Indicator: TA98, Metabolic Activation: RAT, LIVER, S-9, AROCLOR 1254, Method: STANDARD PLATE
[2] = Test System: AMES SALMONELLA TYPHIMURIUM, Strain/Indicator: TA98, Metabolic Activation: NONE, Method: STANDARD PLATE
[3] = Test System: AMES SALMONELLA TYPHIMURIUM, Strain/Indicator: TA100, Metabolic Activation: NONE, Method: STANDARD PLATE

O=C1NC(=O)c2cc([N+](=O)[O-])ccc21 was tested, and the mutagenic call (Test System: AMES SALMONELLA TYPHIMURIUM, Strain/Indicator: TA97, Metabolic Activation: HAMSTER, LIVER, S-9, AROCLOR 1254 (10%), Method: PREINCUBATION) was “inactive; negative”, the mutagenic call (Test System: AMES SALMONELLA TYPHIMURIUM, Strain/Indicator: TA97, Metabolic Activation: NONE, Method: PREINCUBATION) was “active; positive” and the mutagenic call (Test System: AMES SALMONELLA TYPHIMURIUM, Strain/Indicator: TA97, Metabolic Activation: RAT, LIVER, S-9, AROCLOR 1254 (10%), Method: PREINCUBATION) was “inactive; negative”. For the same compound, the mutagenic call (Test System: AMES SALMONELLA TYPHIMURIUM, Strain/Indicator: TA98, Metabolic Activation: HAMSTER, LIVER, S-9, AROCLOR 1254 (10%), Method: PREINCUBATION) was “active; positive”, the mutagenic call (Test System: AMES SALMONELLA TYPHIMURIUM, Strain/Indicator: TA98, Metabolic Activation: NONE, Method: PREINCUBATION) was “active; positive” and the mutagenic call (Test System: AMES SALMONELLA TYPHIMURIUM, Strain/Indicator: TA98, Metabolic Activation: RAT, LIVER, S-9, AROCLOR 1254 (10%), Method: PREINCUBATION) was “active; positive”. For the same compound, the mutagenic call (Test System: AMES SALMONELLA TYPHIMURIUM, Strain/Indicator: TA100, Metabolic Activation: HAMSTER, LIVER, S-9, AROCLOR 1254 (10%), Method: PREINCUBATION) was “inactive; negative”, the mutagenic call (Test System: AMES SALMONELLA TYPHIMURIUM, Strain/Indicator: TA100, Metabolic Activation: NONE, Method: PREINCUBATION) was “inactive; negative” and the mutagenic call (Test System: AMES SALMONELLA TYPHIMURIUM, Strain/Indicator: TA100, Metabolic Activation: RAT, LIVER, S-9, AROCLOR 1254 (10%), Method: PREINCUBATION) was “inactive; negative”. For the same compound, the mutagenic call (Test System: AMES SALMONELLA TYPHIMURIUM, Strain/Indicator: TA1535, Metabolic Activation: HAMSTER, LIVER, S-9, AROCLOR 1254 (10%), Method: PREINCUBATION) was “inactive; negative”, the mutagenic call (Test System: AMES SALMONELLA TYPHIMURIUM, Strain/Indicator: TA1535, Metabolic Activation: NONE, Method: PREINCUBATION) was “inactive; negative” and the mutagenic call (Test System: AMES SALMONELLA TYPHIMURIUM, Strain/Indicator: TA1535, Metabolic Activation: RAT, LIVER, S-9, AROCLOR 1254 (10%), Method: PREINCUBATION) was “inactive; negative”. The mutagenic call (Test System: AMES SALMONELLA TYPHIMURIUM, Strain/Indicator: TA1537, Metabolic Activation: HAMSTER, LIVER, S-9, AROCLOR 1254 (10%), Method: PREINCUBATION) was “active; positive”, the mutagenic call (Test System: AMES SALMONELLA TYPHIMURIUM, Strain/Indicator: TA1537, Metabolic Activation: NONE, Method: PREINCUBATION) was “active; positive” and the mutagenic call (Test System: AMES SALMONELLA TYPHIMURIUM, Strain/Indicator: TA1537, Metabolic Activation: RAT, LIVER, S-9, AROCLOR 1254 (10%), Method: PREINCUBATION) was “active; positive”.
Cc1nc2ccc3c(nc(N)n3C)c2nc1C was tested, and the mutagenic call [1] was “active; positive”.
For NC(=NCCCCCCN=C(N)/N=C(\N)Nc1ccc(Cl)cc1)/N=C(\N)Nc1ccc(Cl)cc1, the mutagenic call (End Point: IN VITRO CHROMOSOMAL ABERRATIONS, Test System: SYRIAN HAMSTER EMBRYO (SHE) CELLS, Metabolic Activation: NONE) was “inactive; negative; toxic at 10 um” and the mutagenic call (End Point: IN VITRO CHROMOSOMAL ABERRATIONS, Test System: SYRIAN HAMSTER EMBRYO (SHE) CELLS, Metabolic Activation: RAT, LIVER, S-9) was “inactive; negative”.
O=C(O)[C@@H]1CS[C@H](c2ccccc2O)N1C(=O)CCS was tested, and the mutagenic call [2] was “inactive; negative”, the mutagenic call (Test System: AMES SALMONELLA TYPHIMURIUM, Strain/Indicator: TA98, Metabolic Activation: S-9, Method: STANDARD PLATE) was “inactive; negative” and the mutagenic call [3] was “inactive; negative”. The mutagenic call (Test System: AMES SALMONELLA TYPHIMURIUM, Strain/Indicator: TA100, Metabolic Activation: S-9, Method: STANDARD PLATE) was “inactive; negative”, the mutagenic call (Test System: AMES SALMONELLA TYPHIMURIUM, Strain/Indicator: TA1535, Metabolic Activation: NONE, Method: STANDARD PLATE) was “inactive; negative” and the mutagenic call (Test System: AMES SALMONELLA TYPHIMURIUM, Strain/Indicator: TA1535, Metabolic Activation: S-9, Method: STANDARD PLATE) was “inactive; negative”. For the same compound, the mutagenic call (Test System: AMES SALMONELLA TYPHIMURIUM, Strain/Indicator: TA1537, Metabolic Activation: NONE, Method: STANDARD PLATE) was “inactive; negative”, the mutagenic call (Test System: AMES SALMONELLA TYPHIMURIUM, Strain/Indicator: TA1537, Metabolic Activation: S-9, Method: STANDARD PLATE) was “inactive; negative” and the mutagenic call (Test System: AMES SALMONELLA TYPHIMURIUM, Strain/Indicator: TA1538, Metabolic Activation: NONE, Method: STANDARD PLATE) was “inactive; negative”. The mutagenic call (Test System: AMES SALMONELLA TYPHIMURIUM, Strain/Indicator: TA1538, Metabolic Activation: S-9, Method: STANDARD PLATE) was “inactive; negative”, the mutagenic call (Test System: E. COLI, Strain/Indicator: WP2, Metabolic Activation: NONE, Method: STANDARD PLATE) was “inactive; negative” and the mutagenic call (Test System: E. COLI, Strain/Indicator: WP2 UVRA, Metabolic Activation: NONE, Method: STANDARD PLATE) was “inactive; negative”. The mutagenic call (Test System: E. COLI, Strain/Indicator: WP2 UVRA, Metabolic Activation: S-9, Method: STANDARD PLATE) was “inactive; negative”.
For CN[C@H]1[C@@H](O[C@@H]2C3CC#CC4O[C@@]4(C4COC(=O)O4)C#CC3=C[C@H]2OC(=O)c2c(O)ccc3c(C)cc(OC)cc23)O[C@H](C)[C@H](O)[C@@H]1O (some centres undefined), the mutagenic call [2] was “inactive; negative”, the mutagenic call [3] was “inactive; negative” and the mutagenic call (Test System: CHINESE HAMSTER OVARY, Strain/Indicator: CHO-D422 (APRT)/8-AZAADENINE, Metabolic Activation: NONE) was “active; positive”. For the same compound, the mutagenic call (Test System: CHINESE HAMSTER OVARY, Strain/Indicator: CHO-K1/6-THIOGUANINE, Metabolic Activation: NONE) was “active; positive”, the mutagenic call (Test System: E. COLI, Strain/Indicator: WP2 (HCR), Metabolic Activation: NONE, Method: STANDARD PLATE) was “active; positive” and the mutagenic call (Test System: E. COLI, Strain/Indicator: WP2, Metabolic Activation: NONE, Method: PREINCUBATION) was “active; positive”. The mutagenic call (Test System: E. COLI, Strain/Indicator: WP2, Metabolic Activation: NONE, Method: SPOT) was “active; positive”, the mutagenic call (Test System: E. COLI, Strain/Indicator: WP2 UVRA, Metabolic Activation: NONE, Method: PREINCUBATION) was “active; positive” and the mutagenic call (Test System: E. COLI, Strain/Indicator: WP2 UVRA, Metabolic Activation: NONE, Method: SPOT) was “active; positive”. For the same compound, the mutagenic call (Test System: UDS HUMAN CELLS, Strain/Indicator: THY INCORP (NON-S-PHASE), Metabolic Activation: NONE, Method: AUTORADIOGRAPHY) was “active; positive” and the mutagenic call (Test System: UDS HUMAN CELLS, Strain/Indicator: THY INCORP (NON-S-PHASE), Metabolic Activation: NONE, Method: LIQUID SCINTILLATION COUNTING) was “active; positive”.
For Oc1cc(Cl)c(Cl)cc1Cl, the mutagenic call (Test System: AMES SALMONELLA TYPHIMURIUM, Strain/Indicator: TA97, Metabolic Activation: NONE, Method: STANDARD PLATE) was “active; positive”, the mutagenic call (Test System: AMES SALMONELLA TYPHIMURIUM, Strain/Indicator: TA97, Metabolic Activation: RAT, LIVER, S-9, AROCLOR 1254, Method: STANDARD PLATE) was “active; positive” and the mutagenic call (Test System: AMES SALMONELLA TYPHIMURIUM, Strain/Indicator: TA98, Metabolic Activation: NONE) was “inactive; negative”. For the same compound, the mutagenic call [2] was “active; positive”, the mutagenic call (Test System: AMES SALMONELLA TYPHIMURIUM, Strain/Indicator: TA98, Metabolic Activation: RAT, LIVER, S-9, AROCLOR 1254) was “inactive; negative” and the mutagenic call [1] was “active; positive”. For the same compound, the mutagenic call (Test System: AMES SALMONELLA TYPHIMURIUM, Strain/Indicator: TA100, Metabolic Activation: NONE) was “inactive; negative”, the mutagenic call [3] was “active; positive” and the mutagenic call (Test System: AMES SALMONELLA TYPHIMURIUM, Strain/Indicator: TA100, Metabolic Activation: RAT, LIVER, S-9, AROCLOR 1254) was “inactive; negative”. The mutagenic call (Test System: AMES SALMONELLA TYPHIMURIUM, Strain/Indicator: TA100, Metabolic Activation: RAT, LIVER, S-9, AROCLOR 1254, Method: STANDARD PLATE) was “inactive; negative”, the mutagenic call (Test System: AMES SALMONELLA TYPHIMURIUM, Strain/Indicator: TA102, Metabolic Activation: NONE) was “inactive; negative” and the mutagenic call (Test System: AMES SALMONELLA TYPHIMURIUM, Strain/Indicator: TA102, Metabolic Activation: RAT, LIVER, S-9, AROCLOR 1254) was “inactive; negative”. The mutagenic call (Test System: AMES SALMONELLA TYPHIMURIUM, Strain/Indicator: TA104, Metabolic Activation: NONE) was “inactive; negative”, the mutagenic call (Test System: AMES SALMONELLA TYPHIMURIUM, Strain/Indicator: TA104, Metabolic Activation: NONE, Method: STANDARD PLATE) was “inactive; negative” and the mutagenic call (Test System: AMES SALMONELLA TYPHIMURIUM, Strain/Indicator: TA104, Metabolic Activation: RAT, LIVER, S-9, AROCLOR 1254) was “inactive; negative”. The mutagenic call (Test System: AMES SALMONELLA TYPHIMURIUM, Strain/Indicator: TA104, Metabolic Activation: RAT, LIVER, S-9, AROCLOR 1254, Method: STANDARD PLATE) was “inactive; negative” and the mutagenic call (Test System: CHINESE HAMSTER V-79, Strain/Indicator: V-79/6-THIOGUANINE, Metabolic Activation: NONE, Method: STANDARD PLATE) was “inactive; negative”.
